Test results as given in patent US20240343733A1, “COMPOUNDS FOR TARGETING DEGRADATION OF IRAK4 PROTEINS” (BIOGEN MA INC., priority 2021, published 2024).

biological target: T1, IRAK4 (Homo sapiens, UniProt Q9NWZ3); assay: IRAK4 Degradation Assay, HiBiT Method; assay type: cell-based; details: 293T cells expressing HiBiT-tagged IRAK4, 6 hours
T1 construct: 293Tcells expressing HiBiT-tagged IRAK4 were then added into 384-well plates
T1 sequence (Q9NWZ3 1-460): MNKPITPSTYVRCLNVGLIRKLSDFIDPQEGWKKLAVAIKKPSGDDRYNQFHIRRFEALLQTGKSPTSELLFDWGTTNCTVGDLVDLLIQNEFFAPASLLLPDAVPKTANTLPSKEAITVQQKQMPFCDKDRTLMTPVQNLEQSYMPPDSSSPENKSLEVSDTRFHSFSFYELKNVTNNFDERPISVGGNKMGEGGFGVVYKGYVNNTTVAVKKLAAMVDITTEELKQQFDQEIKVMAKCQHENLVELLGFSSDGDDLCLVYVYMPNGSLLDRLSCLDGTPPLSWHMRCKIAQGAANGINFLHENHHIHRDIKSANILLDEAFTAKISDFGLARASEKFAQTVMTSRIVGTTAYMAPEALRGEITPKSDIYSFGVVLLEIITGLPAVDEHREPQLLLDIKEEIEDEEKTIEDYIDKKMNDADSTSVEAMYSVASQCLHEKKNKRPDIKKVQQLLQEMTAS
How it was run: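 Luminescent read-out with Nano-Glo HiBiT lytic reagent after 6 h compound exposure at 37 °C. Cells were HiBiT-IRAK4 knock-in 293T (C-terminal tag), 10,000 per well. Compounds ran as 11-point half-log dilutions from […] highest dose, duplicate wells; DMSO served as negative control.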

Structure (SMILES) | DC50 [nM]
CC(C)Oc1cc2nc([C@H]3CC[C@H](CN(C)C4CCN(c5ccc(C6CCC(=O)NC6=O)cc5)CC4)CC3)cn2cc1C(=O)Nc1cccc(C(F)(F)F)n1 (stereo partly shown) [Example 13, 2-[4-[[[1-[4-(2,6-dioxo-3-piperidyl)phenyl]-4-piperidyl]-methyl-amino]methyl]cyclohexyl]-7-isopropoxy-N-[6-(trifluoromethyl)-2-pyridyl]imidazo[1,2-a]pyridine-6-carboxamide] | 10 to 100
CC(C)Oc1cc2nn([C@H]3CC[C@H](CN4CC5(C4)CN(c4ncc(C6CCC(=O)NC6=O)cc4F)C5)CC3)cc2cc1C(=O)Nc1cccn([C@H]2C[C@H]2F)c1=O (stereo partly drawn) [Example 126, 2-((1r,4S)-4-((6-(5-(2,6-dioxopiperidin-3-yl)-3-fluoropyridin-2-yl)-2,6-diazaspiro[3.3]heptan-2-yl)methyl)cyclohexyl)-N-(1-((1S,2R)-2-fluorocyclopropyl)-2-oxo-1,2-dihydropyridin-3-yl)-6-isopropoxy-2H-indazole-5-carboxamide] | < 10
CC(C)Oc1cc2nc([C@H]3CC[C@H](CN(C)C4CCN(c5ccc(C6CCC(=O)NC6=O)cc5)CC4)CC3)cn2cc1C(=O)Nc1cccc(C(F)F)n1 (stereo partly shown) [Example 30, N-[6-(difluoromethyl)-2-pyridyl]-2-[4-[[[1-[4-(2,6-dioxo-3-piperidyl)phenyl]-4-piperidyl]-methyl-amino]methyl]cyclohexyl]-7-isopropoxy-imidazo[1,2-a]pyridine-6-carboxamide] | < 10
CC(C)Oc1cc2nc(C3CCN(C(=O)CN4CCN(c5ccc(C6CCC(=O)NC6=O)cn5)CC4)CC3)cn2cc1C(=O)Nc1cccn([C@H]2C[C@H]2F)c1=O (stereo partly drawn) [Example 163, 2-(1-(2-(4-(5-(2,6-dioxopiperidin-3-yl)pyridin-2-yl)piperazin-1-yl)acetyl)piperidin-4-yl)-N-(1-((1S,2R)-2-fluorocyclopropyl)-2-oxo-1,2-dihydropyridin-3-yl)-7-isopropoxyimidazo[1,2-a]pyridine-6-carboxamide] | < 10
CC(C)Oc1cc2nn(C3CCN(C(=O)CC4(O)CCN(c5ccc(NC6CCC(=O)NC6=O)cc5)CC4)CC3)cc2cc1C(=O)Nc1cccc(C(F)F)n1 (stereo not shown) [Example 65, N-(6-(difluoromethyl)pyridin-2-yl)-2-(1-(2-(1-(4-((2,6-dioxopiperidin-3-yl)amino)phenyl)-4-hydroxypiperidin-4-yl)acetyl)piperidin-4-yl)-6-isopropoxy-2H-indazole-5-carboxamide] | 10 to 100
CC(C)Oc1cc2nn([C@H]3CC[C@H](CN4CCCCC4Cc4ccc(OC5CCC(=O)NC5=O)cc4)CC3)cc2cc1C(=O)Nc1cccn([C@H]2C[C@H]2F)c1=O (stereo partly drawn) [Example 139, 2-((1r,4S)-4-((2-(4-((2,6-dioxopiperidin-3-yl)oxy)benzyl)piperidin-1-yl)methyl)cyclohexyl)-N-(1-((1S,2R)-2-fluorocyclopropyl)-2-oxo-1,2-dihydropyridin-3-yl)-6-isopropoxy-2H-indazole-5-carboxamide] | < 10
CC(C)Oc1nc2nc([C@H]3CC[C@H](CN4CCC(c5ccc6c(c5)n(C)c(=O)n6C5CCC(=O)NC5=O)CC4)CC3)cn2cc1C(=O)Nc1cccn([C@H]2C[C@H]2F)c1=O (stereo partly shown) [Example 192] | < 10
CC(C)Oc1cc2nn(C3CCN(C(=O)CC4CCN(c5ccc(C6CCC(=O)NC6=O)cn5)CC4)CC3)cc2cc1C(=O)Nc1cccn([C@H]2C[C@H]2F)c1=O (stereo partly drawn) [Example 149, 2-(1-(2-(1-(5-(2,6-dioxopiperidin-3-yl)pyridin-2-yl)piperidin-4-yl)acetyl)piperidin-4-yl)-N-(1-((1S,2R)-2-fluorocyclopropyl)-2-oxo-1,2-dihydropyridin-3-yl)-6-isopropoxy-2H-indazole-5-carboxamide] | < 10
CC(C)Oc1cc2nc([C@H]3CC[C@H](CN4CCC(c5ccc6c(c5)n(C)c(=O)n6C5CCC(=O)NC5=O)CC4)CC3)cn2cc1C(=O)Nc1cccc(C(F)(F)F)n1 (stereo partly shown) [Example 5, 2-[4-[[4-[1-(2,6-dioxo-3-piperidyl)-3-methyl-2-oxo-benzimidazol-5-yl]-1-piperidyl]methyl]cyclohexyl]-7-isopropoxy-N-[6-(trifluoromethyl)-2-pyridyl]imidazo[1,2-a]pyridine-6-carboxamide] | 500 to 1000
CC(C)Oc1cc2nn([C@H]3CC[C@H](CN4CCOC[C@@H]4Cc4ccc(OC5CCC(=O)NC5=O)cc4)CC3)cc2cc1C(=O)Nc1cnn2cccnc12 (stereo partly drawn) [Example 131, 2-((1R,4r)-4-(((3R)-3-(4-((2,6-dioxopiperidin-3-yl)oxy)benzyl)morpholino)methyl)cyclohexyl)-6-isopropoxy-N-(pyrazolo[1,5-a]pyrimidin-3-yl)-2H-indazole-5-carboxamide] | 10 to 100
CC(C)Oc1cc2nc(C3CCN(CC(=O)N4CC5(C4)CN(c4ccc(C6CCC(=O)NC6=O)cc4)C5)CC3)cn2cc1C(=O)Nc1cccc(C(F)F)n1 (stereo not shown) [Example 110, N-[6-(difluoromethyl)-2-pyridyl]-2-[1-[2-[6-[4-(2,6-dioxo-3-piperidyl)phenyl]-2,6-diazaspiro[3.3]heptan-2-yl]-2-oxo-ethyl]-4-piperidyl]-7-isopropoxy-imidazo[1,2-a]pyridine-6-carboxamide] | 10 to 100
CC(C)Oc1cc2nc(C3CCN(CC(=O)N4CCC(c5ccc(C6CCC(=O)NC6=O)cc5)CC4)CC3)cn2cc1C(=O)Nc1cccc(C(F)F)n1 (stereo not shown) [Example 99, N-[6-(difluoromethyl)-2-pyridyl]-2-[1-[2-[4-[4-(2,6-dioxo-3-piperidyl)phenyl]-1-piperidyl]-2-oxo-ethyl]-4-piperidyl]-7-isopropoxy-imidazo[1,2-a]pyridine-6-carboxamide] | 10 to 100
CC(C)Oc1cc2nn(C3CCN(C(=O)CN4CCC(c5ccc(NC6CCC(=O)NC6=O)cc5)CC4)CC3)cc2cc1C(=O)Nc1cccc(C(F)(F)F)n1 (stereo not shown) [Example 60, 2-(1-(2-(4-(4-((2,6-dioxopiperidin-3-yl)amino)phenyl)piperidin-1-yl)acetyl)piperidin-4-yl)-6-isopropoxy-N-(6-(trifluoromethyl)pyridin-2-yl)-2H-indazole-5-carboxamide] | 100 to 500
CC(C)Oc1cc2nn(C3CCN(C(=O)CC4(O)CCN(c5cc(F)c(C6CCC(=O)NC6=O)cc5F)CC4)CC3)cc2cc1C(=O)Nc1cnn2cccnc12 (stereo not shown) [Example 57, 2-(1-(2-(1-(4-(2,6-dioxopiperidin-3-yl)-2,5-difluorophenyl)-4-hydroxypiperidin-4-yl)acetyl)piperidin-4-yl)-6-isopropoxy-N-(pyrazolo[1,5-a]pyrimidin-3-yl)-2H-indazole-5-carboxamide] | < 10
CC(C)Oc1cc2nc([C@H]3CC[C@H](CN4CCC(c5ccc(NC6CCC(=O)NC6=O)cc5)CC4)CC3)cn2cc1C(=O)Nc1cccc(C(F)F)n1 (stereo partly shown) [Example 16, N-[6-(difluoromethyl)-2-pyridyl]-2-[4-[[4-[4-[(2,6-dioxo-3-piperidyl)amino]phenyl]-1-piperidyl]methyl]cyclohexyl]-7-isopropoxy-imidazo[1,2-a]pyridine-6-carboxamide] | 10 to 100
CC(C)Oc1cc2nc(C3CCN(CC(=O)N4CCC(c5ccc(NC6CCC(=O)NC6=O)cc5)CC4)CC3)cn2cc1C(=O)Nc1cccc(C(F)(F)F)c1 (stereo not shown) [Example 106, 2-[1-[2-[4-[4-[(2,6-dioxo-3-piperidyl)amino]phenyl]-1-piperidyl]-2-oxo-ethyl]-4-piperidyl]-7-isopropoxy-N-[3-(trifluoromethyl)phenyl]imidazo[1,2-a]pyridine-6-carboxamide] | 100 to 500
CC(C)Oc1cc2nc([C@H]3CC[C@H](CN(C)C4CCN(Cc5ccc6c(c5)n(C)c(=O)n6C5CCC(=O)NC5=O)CC4)CC3)cn2cc1C(=O)Nc1cccc(C(F)F)n1 (stereo partly shown) [Example 43, N-[6-(difluoromethyl)-2-pyridyl]-2-[4-[[[1-[[1-(2,6-dioxo-3-piperidyl)-3-methyl-2-oxo-benzimidazol-5-yl]methyl]-4-piperidyl]-methyl-amino]methyl]cyclohexyl]-7-isopropoxy-imidazo[1,2-a]pyridine-6-carboxamide] | 10 to 100
CC(C)Oc1cc2nc([C@H]3CC[C@H](CN4CC[C@H](c5ccc6c(N7CCC(=O)NC7=O)nn(C)c6c5)[C@H](O)C4)CC3)cn2cc1C(=O)Nc1cccn([C@H]2C[C@H]2F)c1=O [Example 171, 2-((1S,4S)-4-(((3S,4R)-4-(3-(2,4-dioxotetrahydropyrimidin-1(2H)-yl)-1-methyl-1H-indazol-6-yl)-3-hydroxypiperidin-1-yl)methyl)cyclohexyl)-N-(1-((1S,2R)-2-fluorocyclopropyl)-2-oxo-1,2-dihydropyridin-3-yl)-7-isopropoxyimidazo[1,2-a]pyridine-6-carboxamide] | < 10
Cc1cnc2c(NC(=O)c3cn4cc([C@H]5CC[C@H](CN6CCC(c7cc(F)c(C8CCC(=O)NC8=O)cc7F)C(F)(F)C6)CC5)nc4cc3OC(C)C)cnn2c1 (stereo partly shown) [Example 54, 2-[4-[[4-[4-(2,6-dioxo-3-piperidyl)-2,5-difluoro-phenyl]-3,3-difluoro-1-piperidyl]methyl]cyclohexyl]-7-isopropoxy-N-(6-methylpyrazolo[1,5-a]pyrimidin-3-yl)imidazo[1,2-a]pyridine-6-carboxamide] | 100 to 500
